Positions of bridges follow the written chain, without caps; N, C: chain ends. Non-standard residues stand in square brackets, D forms with d. Residues, ends and D or L forms follow the SMILES beside them. *: point of attachment. 5FAM = O=C1OC2(c3ccc(O)cc3Oc3cc(O)ccc32)c2ccc(C(=O)*)cc21; βAla = NCCC(=O)O
Test system: wild-type TmrAB in liposomes
Assay: Single-liposome flow cytometry transport assay
Format: biochemical, Thermus thermophilus
Details: for Peptides/liposome, time course: corrected by ADP background; for Peptides/liposome, two consecutive transport cycles: ADP background corrected
Description: To investigate whether an IF-to-OF transition and conformational arrest by CP13^F or CP14^F can still result in a productive substrate translocation, we followed peptide transport by wild-type TmrAB by single liposome-based flow cytometry (Figure 6A). […] CPs block multiple-turnover transport monitored by quantitative flow cytometry. (A) Single turnover by IF-to-OF switch monitored by single-liposome flow cytometry. […] Transport reactions were stopped by the addition of EDTA (10 mM). 100,000 proteoliposomes were analyzed by flow cytometry monitoring fluorescein and ATTO655 intensities. […] (C, D) Slowdown of multiple-turnover substrate transport. […] Transported peptides per liposomes were evaluated and corrected by ADP background levels as described in (B). Transport kinetics were fitted monoexponentially. […] (E) Two consecutive transport cycles. […] Transported peptides per liposome were evaluated as described in (B) and corrected by background levels in the presence of ADP. […] Figure 6-source data 1. Source data for Figure 6. Figure 6-figure supplement 1. Linear regression of quantitative flow cytometry analysis. (A) Gating strategy. Liposomes were selected according to side and forward scatter areas. Single liposomes were gated based on the height of forward scatter correlated to the area of forward scatter. […] Detergent was removed, and liposomes were extensively washed by centrifugation. […] Equal concentrations of fluorescein served as loading control (right). (C) Linear regression. […] Mean values ± SD (n = 3) are shown. Figure 6-figure supplement 1-source data 1. Source Data for Figure 6-figure supplement 1. [drawing 5] […] To confirm the conformational arrest of wild-type TmrAB by CP13^F and the slow turnover in the presence of CP14^F, we examined two successive cycles of conformational transitions by flow cytometry. […] Both steps were repeated to yield two consecutive cycles of conformational transitions. […] Taken together, the macrocyclic peptides CP13 and CP14 stabilize a pre-hydrolysis state, thus allowing a single-turnover translocation along the IF-to-OF switch. […] Transport reactions were stopped by adding EDTA (10 mM). […] For regression analysis, liposomes were loaded with increasing amounts of peptides to convert the fluorescence intensities into the number of peptides per liposome ([Stefan et al., 2020]). […] Equal amounts of carboxyfluorescein (Sigma-Aldrich) served as loading control. Detergent was removed by adding SM-2 Bio-beads (Bio-Rad) as detailed above. Liposomes were harvested for 30 min at 270,000 g and washed three times by centrifugation. Generally, 20,000-100,000 proteoliposomes were selected according to sideward and forward scatter areas. Single events were selected based on the height of forward scatter plotted against the area of forward scatter. […] Data represent mean ± SD from three experiments.

In the case of `CC(C)[C@@H]1NC(=O)[C@H](Cc2ccccc2)NC(=O)[C@@H]2CCCN2C(=O)[C@H](CC(N)=O)NC(=O)[C@H](Cc2c[nH]c3ccccc23)NC(=O)[C@H](C(C)C)NC(=O)[C@H](Cc2ccc(O)cc2)NC(=O)[C@H](Cc2ccccc2)NC(=O)[C@@H](Cc2ccc(O)cc2)NC(=O)CSC[C@@H](C(=O)NCC(=O)N[C@@H](CO)C(=O)NCCC(=O)NCCC(=O)N[C@@H](CCCNC(=N)N)C(=O)N[C@@H](CCCCNC(=O)c2ccc3c(c2)C(=O)OC32c3ccc(O)cc3Oc3cc(O)ccc32)C(N)=O)NC(=O)[C@H](CCCCN)NC(=O)[C@H](Cc2ccccc2)NC1=O` [CP14] ({CH2CO}-[dY]FYVWNPFVFKCGS[βAla][βAla]RK(5FAM)-NH2; thioether N-12; C-terminus assumed), the “Peptides/liposome, time course” value (1 min at 45°C, CP^F 1 µM, C4^ATTO655 1 µM) is reported as 0.03 Peptides/liposome, the “Mean fluorescence intensity * 10^3, time course” value (1 min at 45°C, CP^F 1 µM, C4^ATTO655 1 µM, without CP 2.29) is reported as 0.00 * 10^3 and the “Peptides/liposome, time course” value (3 min at 45°C, CP^F 1 µM, C4^ATTO655 1 µM) is reported as 6.21 Peptides/liposome. The “Mean fluorescence intensity * 10^3, time course” value (3 min at 45°C, CP^F 1 µM, C4^ATTO655 1 µM, without CP 10.49) was 0.43 * 10^3, the “Peptide transport in two successive IF-to-OF cycles” value (5 min 45°C / 60 min 4°C, repeated) was “peptide transport was detected in both IF-to-OF switches” and the “Peptides/liposome, time course” value (5 min at 45°C, CP^F 1 µM, C4^ATTO655 1 µM) was 14.91 Peptides/liposome. For the same compound, the “Mean fluorescence intensity * 10^3, time course” value (5 min at 45°C, CP^F 1 µM, C4^ATTO655 1 µM, without CP 18.11) was 1.02 * 10^3, the “Peptides/liposome, time course” value (10 min at 45°C, CP^F 1 µM, C4^ATTO655 1 µM) was 24.30 Peptides/liposome and the “Mean fluorescence intensity * 10^3, time course” value (10 min at 45°C, CP^F 1 µM, C4^ATTO655 1 µM, without CP 30.27) was 1.67 * 10^3. The “Peptides/liposome, time course” value (20 min at 45°C, CP^F 1 µM, C4^ATTO655 1 µM) was 38.29 Peptides/liposome, the “Mean fluorescence intensity * 10^3, time course” value (20 min at 45°C, CP^F 1 µM, C4^ATTO655 1 µM, without CP 40.72) was 2.63 * 10^3 and the “Peptides/liposome, time course” value (40 min at 45°C, CP^F 1 µM, C4^ATTO655 1 µM) was 48.57 Peptides/liposome. For the same compound, the “Mean fluorescence intensity * 10^3, time course” value (40 min at 45°C, CP^F 1 µM, C4^ATTO655 1 µM, without CP 51.44) was 3.34 * 10^3, the “C4^ATTO655 peptides per liposome transported along a single IF-to-OF switch” value (CP^F 1 µM, 5 min 45°C, ~30 transport-competent TmrAB per liposome) was ~ 30 peptides per liposome and the “Transported C4^ATTO655, Peptides/liposome” value (TmrAB 0.4 µM, C4^ATTO655 1 µM, ATP 3 mM, CP^F 1 µM, 5 min 45°C, ATP without CP 84.57, ADP 3.52) was 38.81 Peptides/liposome. The “Peptide transport rate compared to control without CP^Fs” value (period of 40 min at 45°C) was “drastically reduced the peptide transport rate”, the “Turnover of wild-type TmrAB over long-term incubation” value (period of 40 min at 45°C) was “slow turnover” and the “Peptides/liposome, two consecutive transport cycles” value (time 0 min) was 0.00 Peptides/liposome. The “Peptides/liposome, two consecutive transport cycles” value (time 5 min (after first 5 min at 45°C)) was 36.27 Peptides/liposome, the “Peptides/liposome, two consecutive transport cycles” value (time 65 min (after 60 min at 4°C)) was 37.68 Peptides/liposome and the “Peptides/liposome, two consecutive transport cycles” value (time 70 min (after second 5 min at 45°C)) was 44.92 Peptides/liposome. The “Peptides/liposome, two consecutive transport cycles” value (time 130 min (after second 60 min at 4°C)) was 48.07 Peptides/liposome.
